Values of other authors, collected in patent US20110082867A1, “SYSTEM, METHOD, AND COMPUTER PROGRAM PRODUCT FOR ANALYZING DRUG INTERACTIONS” (priority 2009, published 2011).

Key:
CYP 1A2 = biological target: T1, CYP 1A2 (Homo sapiens, UniProt P05177); details: Gene CYP 1A2; involvement strength and type
T1 sequence (P05177 1-516): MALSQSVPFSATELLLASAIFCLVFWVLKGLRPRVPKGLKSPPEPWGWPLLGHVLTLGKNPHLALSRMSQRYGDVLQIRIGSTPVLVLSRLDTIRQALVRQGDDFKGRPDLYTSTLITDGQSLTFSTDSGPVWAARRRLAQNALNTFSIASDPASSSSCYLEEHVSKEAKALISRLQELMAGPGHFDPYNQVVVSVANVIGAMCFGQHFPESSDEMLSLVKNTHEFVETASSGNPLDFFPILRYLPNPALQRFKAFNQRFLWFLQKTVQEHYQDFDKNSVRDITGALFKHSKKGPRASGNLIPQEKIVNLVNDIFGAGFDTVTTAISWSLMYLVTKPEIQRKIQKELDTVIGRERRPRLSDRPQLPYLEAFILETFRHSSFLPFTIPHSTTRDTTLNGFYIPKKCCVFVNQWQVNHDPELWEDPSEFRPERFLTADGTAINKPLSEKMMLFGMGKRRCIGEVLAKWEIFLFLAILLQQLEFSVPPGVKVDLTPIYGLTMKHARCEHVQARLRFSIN

CYP 3A4 = CYP 3A4 (Homo sapiens, UniProt P08684); details: Gene CYP 3A4; involvement strength and type
CYP 2A6 = biological target: T2, CYP 2A6 (Homo sapiens, UniProt P11509); details: Gene CYP 2A6; involvement strength and type
T2 sequence (P11509 1-494): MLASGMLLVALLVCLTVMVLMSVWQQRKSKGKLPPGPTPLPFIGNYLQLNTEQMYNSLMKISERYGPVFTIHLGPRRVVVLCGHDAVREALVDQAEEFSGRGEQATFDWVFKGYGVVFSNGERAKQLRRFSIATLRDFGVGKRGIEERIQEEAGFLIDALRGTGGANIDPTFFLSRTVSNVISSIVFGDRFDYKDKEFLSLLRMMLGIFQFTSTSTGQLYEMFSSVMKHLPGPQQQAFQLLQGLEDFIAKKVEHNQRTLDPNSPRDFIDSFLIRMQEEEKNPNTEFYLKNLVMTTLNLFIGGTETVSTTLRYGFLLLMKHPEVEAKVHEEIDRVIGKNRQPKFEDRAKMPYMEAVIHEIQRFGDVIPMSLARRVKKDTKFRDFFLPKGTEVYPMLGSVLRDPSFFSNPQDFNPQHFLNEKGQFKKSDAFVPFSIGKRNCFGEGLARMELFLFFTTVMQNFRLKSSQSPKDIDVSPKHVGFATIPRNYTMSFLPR

CYP 2E1 = CYP 2E1 (Homo sapiens, UniProt P05181); details: Gene CYP 2E1; involvement strength and type
CYP 2D6 = CYP 2D6 (Homo sapiens, UniProt P10635); details: Gene CYP 2D6; involvement strength and type
CYP 2C9 = CYP 2C9 (Homo sapiens, UniProt P11712); details: Gene CYP 2C9; involvement strength and type
Sequence of CYP 2C9 (P11712 whole entry): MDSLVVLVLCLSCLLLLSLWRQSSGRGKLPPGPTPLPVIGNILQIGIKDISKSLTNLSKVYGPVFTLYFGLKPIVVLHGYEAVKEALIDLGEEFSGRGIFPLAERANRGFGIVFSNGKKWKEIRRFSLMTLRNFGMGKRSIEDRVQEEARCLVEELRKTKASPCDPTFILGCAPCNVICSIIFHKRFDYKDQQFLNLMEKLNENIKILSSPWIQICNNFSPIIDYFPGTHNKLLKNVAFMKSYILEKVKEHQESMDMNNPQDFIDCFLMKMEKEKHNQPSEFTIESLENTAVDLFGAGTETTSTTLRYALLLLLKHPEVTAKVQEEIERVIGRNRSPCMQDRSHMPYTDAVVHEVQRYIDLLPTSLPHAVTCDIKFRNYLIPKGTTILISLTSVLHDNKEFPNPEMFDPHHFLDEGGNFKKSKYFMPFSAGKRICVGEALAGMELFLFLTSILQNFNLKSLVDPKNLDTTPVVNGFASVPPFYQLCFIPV

Sequence of CYP 2D6 (P10635 whole entry): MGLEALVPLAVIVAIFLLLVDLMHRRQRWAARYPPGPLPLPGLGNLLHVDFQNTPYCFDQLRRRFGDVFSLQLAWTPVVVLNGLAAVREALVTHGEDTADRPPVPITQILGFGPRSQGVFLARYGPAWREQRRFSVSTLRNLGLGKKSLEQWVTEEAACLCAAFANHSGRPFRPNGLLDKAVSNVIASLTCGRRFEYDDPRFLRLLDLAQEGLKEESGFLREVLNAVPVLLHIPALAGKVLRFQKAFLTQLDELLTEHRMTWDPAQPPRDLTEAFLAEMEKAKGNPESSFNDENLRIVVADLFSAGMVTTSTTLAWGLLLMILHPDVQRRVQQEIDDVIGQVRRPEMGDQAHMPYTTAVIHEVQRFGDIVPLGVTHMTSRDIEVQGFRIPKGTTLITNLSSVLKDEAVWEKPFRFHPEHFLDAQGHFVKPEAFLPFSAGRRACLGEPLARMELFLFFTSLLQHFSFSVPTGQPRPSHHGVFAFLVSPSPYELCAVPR
Sequence of CYP 2E1 (P05181 whole entry): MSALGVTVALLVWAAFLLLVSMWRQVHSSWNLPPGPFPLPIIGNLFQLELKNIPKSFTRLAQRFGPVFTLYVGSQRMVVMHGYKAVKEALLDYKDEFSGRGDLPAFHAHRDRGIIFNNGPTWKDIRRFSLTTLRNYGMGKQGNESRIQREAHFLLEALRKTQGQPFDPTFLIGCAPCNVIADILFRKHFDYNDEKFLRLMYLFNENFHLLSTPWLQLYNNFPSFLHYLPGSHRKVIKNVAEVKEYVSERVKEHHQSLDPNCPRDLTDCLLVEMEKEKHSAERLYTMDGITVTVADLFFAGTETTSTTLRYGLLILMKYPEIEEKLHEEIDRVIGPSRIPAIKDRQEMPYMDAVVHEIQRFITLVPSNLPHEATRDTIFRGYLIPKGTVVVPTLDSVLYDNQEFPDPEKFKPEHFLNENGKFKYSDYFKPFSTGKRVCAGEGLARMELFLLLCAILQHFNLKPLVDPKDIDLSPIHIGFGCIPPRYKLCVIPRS
Sequence of CYP 3A4 (P08684 whole entry): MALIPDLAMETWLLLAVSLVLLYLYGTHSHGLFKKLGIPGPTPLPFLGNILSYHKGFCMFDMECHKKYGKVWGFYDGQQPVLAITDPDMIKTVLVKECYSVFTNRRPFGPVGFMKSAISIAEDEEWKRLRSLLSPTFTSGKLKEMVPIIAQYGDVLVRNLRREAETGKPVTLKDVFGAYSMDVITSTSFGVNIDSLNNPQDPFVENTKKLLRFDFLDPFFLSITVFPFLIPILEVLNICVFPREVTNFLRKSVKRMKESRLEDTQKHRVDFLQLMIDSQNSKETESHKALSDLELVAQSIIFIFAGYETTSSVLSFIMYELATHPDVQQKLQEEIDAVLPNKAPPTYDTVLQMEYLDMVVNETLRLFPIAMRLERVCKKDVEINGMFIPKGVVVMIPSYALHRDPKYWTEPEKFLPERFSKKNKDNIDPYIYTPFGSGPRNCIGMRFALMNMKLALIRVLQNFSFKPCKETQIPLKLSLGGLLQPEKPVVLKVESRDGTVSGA

SMILES | Drug Interaction (CYP 1A2) | Drug Interaction (CYP 3A4) | Drug Interaction (CYP 2A6) | Drug Interaction (CYP 2E1) | Drug Interaction (CYP 2D6) | Drug Interaction (CYP 2C9)
CC(=O)Nc1ccc(O)cc1 [Acetaminophen] | Minor Substrate | Minor Substrate | Minor Substrate | Major Substrate | Minor Substrate | –
COc1ccc2c3c1O[C@H]1[C@@H](O)C=C[C@H]4[C@@H](C2)N(C)CC[C@@]341 [Codeine] | – | – | – | – | Major Substrate | –
CC(=O)CC(c1ccccc1)c1c(O)c2ccccc2oc1=O (stereo not shown) [Warfarin] | – | – | – | – | – | Major Substrate
